System: 11βhsd2 cardiac-specific transgenic mice
Experiment: Eplerenone treatment of 11βhsd2 cardiac-specific transgenic mice, echocardiography
Assay type: in vivo, mouse
Conditions: male transgenic mice, chow containing eplerenone approx. 200 mg/kg/day from 4 weeks of age
Procedure: Starting at 4 weeks of age male transgenic mice were supplied with either chow containing eplerenone (approximate dose of 200 mg/kg/day) to eat or normal chow.
Echocardiograms were acquired using a Sonos 5500 echocardiographic system equipped with a 15-MHz linear-array transducer (Agilent, Andover, Mass.). Images were obtained from mice lightly anesthetized with 1-2% isoflurane (AErrane; Baxter, Inc., Deerfield, Ill.) lying in the left lateral decubitus position. Care was taken to maintain adequate contact while avoiding excessive pressure on the chest wall. Two-dimensional parasternal long and short-axis images of the left ventricle were obtained. Two-dimensional targeted M-mode tracings were recorded from the parasternal short-axis view at the level of the papillary muscles at a sweep speed of 150 mm/s. All echocardiograms were recorded digitally on a rewritable magneto-optical disk. Measurements and calculations used are as follows: Left Ventricular End diastolic (EDV) and systolic (ESV) volumes were calculated via the method of discs from direct measurement systolic (LVAs) and diastolic (LVAd) areas. Ejection Fraction (EF) was calculated from systolic and diastolic volumes with the following formula: EF=(EDV−ESV)/EDV×100. […] Heart rate (HR) was calculated by measuring the R-R interval in M-mode and using the formula: HR=60(sec/min)/R-R interval(sec/beat). […]

## COC(=O)[C@@H]1CC2=CC(=O)CC[C@]2(C)[C@@]23O[C@@H]2C[C@@]2(C)[C@@H](CC[C@@]24CCC(=O)O4)[C@H]13 [eplerenone]
2.5 months of treatment
  development of left ventricular dysfunction and heart failure: significantly attenuated
After 2.5 months of treatment, versus normal chow
  myocardial function: significantly improved
